The supplement of paper PMC10307832

Tests used:
Test in all cases: relative viability (nuclei count vs DMSO), 5 days (fraction); higher = more cells survive
KIN001-266 + Foretinib = compound: CCN1CCC(CC1)N2C=C(N=N2)CNC3=CC4=C(C(=CN=C4C(=C3)Cl)C#N)NC5=CC(=C(C=C5)F)Cl [KIN001-266] + COc1cc2c(Oc3ccc(NC(=O)C4(C(=O)Nc5ccc(F)cc5)CC4)cc3F)ccnc2cc1OCCCN1CCOCC1 [Foretinib] (partner 0.25 µM)
Method in brief: (§1)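 Relative viability equals treated-well nuclei counts divided by vehicle-well nuclei counts. Counts came from 4× images of lung cancer cell lines grown in 1536-well plates for 5 days after pin-tool dosing on the day after seeding. Dosing used one drug alone or a fixed anchor-drug dose plus five library-drug doses (not always all listed) in √10 steps, and values are medians of duplicate plates.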

KIN001-266 + Palbociclib = compound: CCN1CCC(CC1)N2C=C(N=N2)CNC3=CC4=C(C(=CN=C4C(=C3)Cl)C#N)NC5=CC(=C(C=C5)F)Cl [KIN001-266] + CC(=O)c1c(C)c2cnc(Nc3ccc(N4CCNCC4)cn3)nc2n(C2CCCC2)c1=O [Palbociclib] (partner 0.5 µM)
Method in brief: as §1

KIN001-266 + Bortezomib = compound: CCN1CCC(CC1)N2C=C(N=N2)CNC3=CC4=C(C(=CN=C4C(=C3)Cl)C#N)NC5=CC(=C(C=C5)F)Cl [KIN001-266] + CC(C)C[C@H](NC(=O)[C@H](Cc1ccccc1)NC(=O)c1cnccn1)B(O)O [Bortezomib] (partner 0.002 µM)
Method in brief: as §1

KIN001-266 + Pictilisib = compound: CCN1CCC(CC1)N2C=C(N=N2)CNC3=CC4=C(C(=CN=C4C(=C3)Cl)C#N)NC5=CC(=C(C=C5)F)Cl [KIN001-266] + CS(=O)(=O)N1CCN(Cc2cc3nc(-c4cccc5[nH]ncc45)nc(N4CCOCC4)c3s2)CC1 [Pictilisib] (partner 1 µM)
Method in brief: as §1

Row | Cell Line | relative viability (KIN001-266 + Foretinib; first compound 0.08 µM) | relative viability (KIN001-266 + Foretinib; first compound 0.253 µM) | relative viability (KIN001-266 + Foretinib; first compound 0.8 µM) | relative viability (KIN001-266 + Foretinib; first compound 2.53 µM) | relative viability (KIN001-266 + Foretinib; first compound 8 µM) | relative viability (KIN001-266 + Palbociclib; first compound 0.08 µM) | relative viability (KIN001-266 + Palbociclib; first compound 0.253 µM) | relative viability (KIN001-266 + Palbociclib; first compound 0.8 µM) | relative viability (KIN001-266 + Palbociclib; first compound 2.53 µM) | relative viability (KIN001-266 + Palbociclib; first compound 8 µM) | relative viability (KIN001-266 + Bortezomib; first compound 0.08 µM) | relative viability (KIN001-266 + Bortezomib; first compound 0.253 µM) | relative viability (KIN001-266 + Bortezomib; first compound 0.8 µM) | relative viability (KIN001-266 + Bortezomib; first compound 2.53 µM) | relative viability (KIN001-266 + Bortezomib; first compound 8 µM) | relative viability (KIN001-266 + Pictilisib; first compound 0.08 µM) | relative viability (KIN001-266 + Pictilisib; first compound 0.253 µM) | relative viability (KIN001-266 + Pictilisib; first compound 0.8 µM) | relative viability (KIN001-266 + Pictilisib; first compound 2.53 µM) | relative viability (KIN001-266 + Pictilisib; first compound 8 µM)
1 | LXF-289 | 0.936 | 0.945 | 0.963 | 0.997 | 1.07 | 0.589 | 0.618 | 0.596 | 0.606 | 0.629 | 0.954 | 0.987 | 0.95 | 0.972 | 1.03 | 0.791 | 0.786 | 0.755 | 0.767 | 0.799
2 | NCI-H23 | 0.924 | 0.83 | 0.975 | 0.995 | 0.862 | 0.46 | 0.423 | 0.522 | 0.532 | 0.402 | 1.14 | 1.1 | 1.04 | 0.916 | 0.642 | 0.494 | 0.557 | 0.458 | 0.351 | 0.469
3 | NCI-H322M | 0.942 | 0.96 | 1.03 | 0.962 | 0.864 | 0.455 | 0.479 | 0.477 | 0.387 | 0.448 | 1.16 | 1.43 | 1.34 | 1.23 | 1.18 | 0.593 | 0.713 | 0.451 | 0.456 | 0.484
4 | NCI-H441 | 1.04 | 0.889 | 1.02 | 0.781 | 0.689 | 0.294 | 0.223 | 0.217 | 0.22 | 0.259 | 0.603 | 0.811 | 0.478 | 0.457 | 0.554 | 0.559 | 0.381 | 0.481 | 0.459 | 0.415
5 | NCI-H460 | 1.01 | 0.973 | 1.02 | 0.936 | 0.941 | 0.175 | 0.161 | 0.263 | 0.176 | 0.153 | 1.01 | 1.18 | 1.16 | 0.988 | 1.06 | 0.5 | 0.339 | 0.308 | 0.355 | 0.302
6 | NCI-H520 | 0.67 | 0.668 | 0.69 | 0.487 | 0.638 | 0.23 | 0.236 | 0.243 | 0.165 | 0.237 | 0.633 | 0.677 | 0.535 | 0.544 | 0.675 | 0.311 | 0.242 | 0.289 | 0.237 | 0.286
7 | NCI-H647 | 1.22 | 1.22 | 1.36 | 1.16 | 0.97 | 0.432 | 0.399 | 0.428 | 0.479 | 0.351 | 1 | 1.03 | 1.14 | 1.07 | 0.935 | 0.461 | 0.405 | 0.491 | 0.282 | 0.414
